# Test results published in patent US20090215171A1, “PELCAM-1-related molecules compositions kit of parts and associated methods of use” (The Johns Hopkins University, priority 2004, published 2009).
# Tested on: HUVECs
# Test: Measurement of intracellular free [Ca2+]i in HUVEC suspension (Fura-2/AM, thrombin stimulation)
# Format: cell-based, human
# Conditions: rest HUVEC; 16 h treatment; Ab 0.4 and 1.6 μg/mL, peptides 15 and 30 μg/mL; thrombin 1 U/ml
# Procedure: HUVECs were cultured in EGM™ supplied with 10% of fetal bovine serum (FBS, dialyzed) to early confluence. HUVECs (passage number 3-4) were pre-incubated with and without TNF-α (5 ng/mL, 4 hour), next the cells were subjected to various doses of the JHS-7 Ab, accompanied by the pAb-C (c-terminal anti-PECAM-1 antibody) and a rabbit IgG (both served as controls). In addition, HUVECs were also incubated with a various doses of the JHS-7 peptide and a scrambled peptide served as its control. The treatments were carried out in EGM™ supplied with 2% of FBS for 16 hours. […] All above-mentioned peptides and antibodies were tested endotoxin free with an endotoxin detection kit (Sigma E-TOXATE®). Cell viability was determined with trypan blue exclusion assay after the incubation and no cytotoxic effect was observed under the Applicants' experimental conditions. HUVEC monolayers, following the incubation, were subjected to the following assays simultaneously: 1) monocyte TEM assay; 2) [Ca^2+]i measurement. […] Experimental results were calculated as average levels and plotted as % controls.
# [Ca^2+]i measurement was conducted as described previously with slight modification. […] Fluorescence was recorded using a spectrofluorometer (Perkin Elmer LS-50B), with excitation and emission wavelengths of 340 and 505 nm, respectively. […]
substance,measurement,value
scrambled peptide: control peptide of identical amino acid composition but different sequence TEDVLVPQNKSDNKATNNAFPNVSYVDEEDC (SEQ ID NO: 4) (Nonsense peptide with no known matches.),thrombin stimulatable [Ca2+]i,no effect
